{"source": "patent US5849729A", "about": "“Use of hydrolyzed cocoa butter for percutaneous absorption” (Hershey Foods Corporation, priority 1995, dated 1998)", "assay": "In-vitro percutaneous absorption of retinoic acid and triamcinolone acetonide from two cocoa butter vehicles (Franz cells, 48 h)", "conditions": "for % Abs (% Absorbed) / % Absorbed / total absorption: percent of applied dose", "excerpt": "The objective of this study was to measure the permeation of retinoic acid and triamcinolone acetonide through human skin in-vitro from two cocoa butter vehicles.\nTwo cocoa butter vehicles supplied by Hershey Foods Corporation were utilized: (1) pure cocoa butter and (2) partially hydrolyzed cocoa butter emulsion. Radioactive [11,12-^3 H] [retinoic acid (NET 920, Lot 2930-067, specific activity 1 mCi/ml) and [6,7-^3 H]-triamcinolone acetonide (NET 470, Lot 2904-170, specific activity 1 mCi/ml) were obtained from Dupont-New England Nuclear Corporation, Boston, Mass.\nEach of the two cocoa butter vehicles was spiked separately with ^3 H-retinoic acid and ^3 H-Triamcinolone acetonide to give a total of four radioactive formulations for study. This was done by adding 25 μl (containing 25 μCi) of each tracer solution to approximately 1 gram of each vehicle and mixing with the tip of the dispensing micropipette. The pure cocoa butter vehicle was liquified by holding it under warm tap water prior to spiking. This was not done with the partially hydrolyzed cocoa butter emulsion. Neither formulation was used for three days after spiking to allow for diffusional mixing to take place. Final radioactive concentrations of each formulation were: […]\nHuman trunk skin without obvious signs of disease was used throughout. It was obtained within 24 hours of death, dermatomed to a thickness of approximately 0.25 mm, cryopreserved and sealed in water vapor-impermeableplastic bags. It was stored at -70° C. until the day of use then thawed by placing the bag in 37° C. water.\nSkin from a single donor was cut into multiple sections large enough to fit on 0.8 cm^2 Franz cells. The dermal chamber was filled with isotonic saline, pH 7.4, into which a small magnetic stirring bar was placed. The epidermal chamber was left open to the ambient laboratory environment, approximately 22° C. and 40-60% RH. The cells were placed in a diffusion apparatus in which the dermal receptor solution was stirred magnetically at 600 RPM and its temperature maintained at 37° C.\nTo assure the integrity of each skin section, its permeability to tritiated water was determined before application of the test formulations. Following a brief (0.5-1 hour) equilibration period, 150 μl ^3 H2 O (specific activity 0.3 μCi/ml) was layered across the top of the skin section so that the entire exposed surface was covered. After 5 minutes the aqueous layer was removed and the surface of the skin carefully blotted dry. At t=0.5 hour the saline receptor phase was removed and analyzed for radioactive content by liquid scintillation counting. Skin specimens in which absorption of ^3 H2 O was less than 1.25 μl were considered acceptable.\nSubsequently, each test formulation was applied at a target dose of 10 mg (cream) or 10 μl (butter). The cream formulation (partially hydrolyzed cocoa butter emulsion) was applied from the smooth, rounded-tip of a glass rod, the exact amount determined by weighing the rod before and after application. The butter formulation (pure cocoa butter) was first liquified under warm tap water, allowed to cool to room temperature, then applied with a 10 μl positive displacement micropipette prior to resolidifying. At 4, 8, 12, 24, 36 and 48 hours the receptor solution was removed in its entirety, replaced with fresh solution, and a 1 ml aliquot taken and assayed for radioactive content by liquid scintillation counting.\nA 1 ml aliquot of each receptor sample containing ^3 H2 O, ^3 H-retinoic acid, or ^3 H-triamcinolone acetonide was placed in a 7 ml glass scintillation vial and gelled by the addition of 5 ml Opti-Fluor (Packard Instrument Co., Meriden, Conn.). These were counted in a Packard Tri-Carb Model 1900CA Liquid scintillation Analyzer equipped with internal standard and automatic quench correction.", "key": {"[1]": {"conditions": "cream (partially hydrolyzed cocoa butter emulsion), 48 h, individual skin sections"}, "[2]": {"conditions": "cream, 48 h, average of three donors"}, "[3]": {"conditions": "cream, 48 h, average per skin donor (n=4), listed as RETINOIC ACID"}, "[4]": {"conditions": "cream, 48 h, average per skin donor (n=4), listed as Retinoic Acid"}}, "note": "Where “and” joins values, the source holds several entries; their conditions need not be identical. Equal values may be shown once."}
{"smiles": "CC1=C(/C=C/C(C)=C/C=C/C(C)=C/C(=O)O)C(C)(C)CCC1", "note": "[retinoic acid]", "values": [{"measurement": "% Abs (% Absorbed)", "setting": "butter, 48 h, average per skin donor (n=4), listed as Retinoic Acid", "value": "13.67% and 18.02% and 16.97%"}, {"measurement": "Penet (Total Penetration)", "setting": "[1]", "value": "824.73 and 721.36 and 745.68 and 808.17 and 1027.61 and 945.49 and 550.30 and 524.77 and 919.75 and 670.20 and 859.80 and 1068.35"}, {"measurement": "% Abs (% Absorbed)", "setting": "[1]", "value": "14.03% and 14.76% and 13.59% and 17.11% and 17.20% and 15.81% and 13.56% and 15.67% and 21.00% and 18.37% and 18.57% and 20.67%"}, {"measurement": "Rate of absorption, R1", "setting": "cream (partially hydrolyzed cocoa butter emulsion), sample R1, mid-t 2 h, individual skin sections", "value": "40.91 ng/cm^2 /hr and 36.94 ng/cm^2 /hr and 38.12 ng/cm^2 /hr and 45.28 ng/cm^2 /hr and 74.50 ng/cm^2 /hr and 68.54 ng/cm^2 /hr and 46.23 ng/cm^2 /hr and 49.65 ng/cm^2 /hr and 16.18 ng/cm^2 /hr and 50.09 ng/cm^2 /hr and 69.86 ng/cm^2 /hr and 77.41 ng/cm^2 /hr"}, {"measurement": "Rate of absorption, R3", "setting": "cream (partially hydrolyzed cocoa butter emulsion), sample R3, mid-t 10 h, individual skin sections", "value": "23.20 ng/cm^2 /hr and 19.99 ng/cm^2 /hr and 20.80 ng/cm^2 /hr and 24.15 ng/cm^2 /hr and 28.97 ng/cm^2 /hr and 25.18 ng/cm^2 /hr and 16.74 ng/cm^2 /hr and 15.77 ng/cm^2 /hr and 27.41 ng/cm^2 /hr and 19.26 ng/cm^2 /hr and 26.16 ng/cm^2 /hr and 30.74 ng/cm^2 /hr"}, {"measurement": "Rate of absorption, R4", "setting": "cream (partially hydrolyzed cocoa butter emulsion), sample R4, mid-t 18 h, individual skin sections", "value": "17.83 ng/cm^2 /hr and 16.44 ng/cm^2 /hr and 14.68 ng/cm^2 /hr and 15.42 ng/cm^2 /hr and 27.53 ng/cm^2 /hr and 24.05 ng/cm^2 /hr and 12.20 ng/cm^2 /hr and 11.56 ng/cm^2 /hr and 26.23 ng/cm^2 /hr and 18.49 ng/cm^2 /hr and 25.34 ng/cm^2 /hr and 30.20 ng/cm^2 /hr"}, {"measurement": "Rate of absorption, R5", "setting": "cream (partially hydrolyzed cocoa butter emulsion), sample R5, mid-t 30 h, individual skin sections", "value": "14.89 ng/cm^2 /hr and 15.68 ng/cm^2 /hr and 17.30 ng/cm^2 /hr and 17.77 ng/cm^2 /hr and 15.95 ng/cm^2 /hr and 14.81 ng/cm^2 /hr and 8.32 ng/cm^2 /hr and 7.95 ng/cm^2 /hr and 15.24 ng/cm^2 /hr and 11.88 ng/cm^2 /hr and 12.50 ng/cm^2 /hr and 19.16 ng/cm^2 /hr"}, {"measurement": "Rate of absorption, R6", "setting": "cream (partially hydrolyzed cocoa butter emulsion), sample R6, mid-t 42 h, individual skin sections", "value": "20.33 ng/cm^2 /hr and 14.24 ng/cm^2 /hr and 14.46 ng/cm^2 /hr and 17.62 ng/cm^2 /hr and 16.38 ng/cm^2 /hr and 15.16 ng/cm^2 /hr and 8.78 ng/cm^2 /hr and 7.68 ng/cm^2 /hr and 13.21 ng/cm^2 /hr and 9.49 ng/cm^2 /hr and 10.20 ng/cm^2 /hr and 14.22 ng/cm^2 /hr"}, {"measurement": "Total Penetration", "setting": "[2]", "value": 805.52}, {"measurement": "Penet (Total Penetration)", "setting": "[3]", "value": "774.99 and 762.04 and 879.52"}, {"measurement": "Penet (Total Penetration)", "setting": "[4]", "value": "879.52 and 762.04 and 774.99"}, {"measurement": "Rate of absorption, R1", "setting": "cream, R1, mid-t 2 h, average of three donors", "value": 55.06, "unit": "ng/cm^2 /hr"}, {"measurement": "Rate of absorption, R1", "setting": "cream, R1, mid-t 2 h, average per skin donor (n=4), listed as RETINOIC ACID", "value": "40.32 ng/cm^2 /hr and 59.73 ng/cm^2 /hr and 65.14 ng/cm^2 /hr"}, {"measurement": "Rate of absorption, R1", "setting": "cream, R1, mid-t 2 h, average per skin donor (n=4), listed as Retinoic Acid", "value": "65.14 ng/cm^2 /hr and 59.73 ng/cm^2 /hr and 40.32 ng/cm^2 /hr"}, {"measurement": "Rate of absorption, R3", "setting": "cream, R3, mid-t 10 h, average of three donors", "value": 23.20, "unit": "ng/cm^2 /hr"}, {"measurement": "Rate of absorption, R3", "setting": "cream, R3, mid-t 10 h, average per skin donor (n=4), listed as RETINOIC ACID", "value": "22.04 ng/cm^2 /hr and 21.67 ng/cm^2 /hr and 25.89 ng/cm^2 /hr"}, {"measurement": "Rate of absorption, R3", "setting": "cream, R3, mid-t 10 h, average per skin donor (n=4), listed as Retinoic Acid", "value": "25.89 ng/cm^2 /hr and 21.67 ng/cm^2 /hr and 22.04 ng/cm^2 /hr"}, {"measurement": "Rate of absorption, R4", "setting": "cream, R4, mid-t 18 h, average of three donors", "value": 20.00, "unit": "ng/cm^2 /hr"}, {"measurement": "Rate of absorption, R4", "setting": "cream, R4, mid-t 18 h, average per skin donor (n=4), listed as RETINOIC ACID", "value": "16.09 ng/cm^2 /hr and 18.83 ng/cm^2 /hr and 25.07 ng/cm^2 /hr"}, {"measurement": "Rate of absorption, R4", "setting": "cream, R4, mid-t 18 h, average per skin donor (n=4), listed as Retinoic Acid", "value": "25.07 ng/cm^2 /hr and 18.83 ng/cm^2 /hr and 16.09 ng/cm^2 /hr"}, {"measurement": "Rate of absorption, R5", "setting": "cream, R5, mid-t 30 h, average of three donors", "value": 14.29, "unit": "ng/cm^2 /hr"}, {"measurement": "Rate of absorption, R5", "setting": "cream, R5, mid-t 30 h, average per skin donor (n=4), listed as RETINOIC ACID", "value": "16.41 ng/cm^2 /hr and 11.76 ng/cm^2 /hr and 14.70 ng/cm^2 /hr"}, {"measurement": "Rate of absorption, R5", "setting": "cream, R5, mid-t 30 h, average per skin donor (n=4), listed as Retinoic Acid", "value": "14.70 ng/cm^2 /hr and 11.76 ng/cm^2 /hr and 16.41 ng/cm^2 /hr"}, {"measurement": "Rate of absorption, R6", "setting": "cream, R6, mid-t 42 h, average of three donors", "value": 13.47, "unit": "ng/cm^2 /hr"}, {"measurement": "Rate of absorption, R6", "setting": "cream, R6, mid-t 42 h, average per skin donor (n=4), listed as RETINOIC ACID", "value": "16.62 ng/cm^2 /hr and 12.00 ng/cm^2 /hr and 11.78 ng/cm^2 /hr"}, {"measurement": "Rate of absorption, R6", "setting": "cream, R6, mid-t 42 h, average per skin donor (n=4), listed as Retinoic Acid", "value": "11.78 ng/cm^2 /hr and 12.00 ng/cm^2 /hr and 16.62 ng/cm^2 /hr"}, {"measurement": "% Absorbed / total absorption", "setting": "[2]", "value": 16.7, "unit": "%"}, {"measurement": "% Absorbed / total absorption", "setting": "cream, 48 h, average of three donors, listed as Retinoic Acid", "value": 16.69, "unit": "%"}, {"measurement": "% Abs (% Absorbed)", "setting": "[3]", "value": "14.87% and 15.56% and 19.65%"}, {"measurement": "% Abs (% Absorbed)", "setting": "[4]", "value": "19.65% and 15.56% and 14.87%"}, {"measurement": "difference between partially hydrolyzed cocoa butter emulsion and pure cocoa butter as delivery vehicle", "setting": "in words", "value": "no appreciable difference"}, {"measurement": "average absorption", "setting": "with cocoa butter and partially hydrolyzed cocoa butter emulsion (both vehicles)", "value": 16.5, "unit": "%"}]}
